The source of these data is US11660293B2, “Substituted 2-azabicyclo[3.1.1]heptane and 2-azabicyclo[3.2.1]octane derivatives as orexin receptor antagonists” (Chronos Therapeutics Limited, priority 2017, dated 2023).

The target of experiment [1] is human Orexin type 2 receptors (Homo sapiens (Human), UniProt O43614). As to the kind of experiment: Scintillation Proximity Assay (SPA) binding assay, [3H]EMPA displacement, HEK-hOX2 membranes. The following applies: for Ki: read-out: OX2 pKi (SPA binding) (converted). A general note: Scintillation proximity formats need no separation of bound from free tracer.
The target of experiment [2] is human Orexin type 1 receptors (Homo sapiens (Human), UniProt O43613). As to the kind of experiment: Scintillation Proximity Assay (SPA) binding assay, [3H]SB-674042 displacement, CHO-hOX1 membranes. The following applies: for Ki: read-out: OX1 pKi (SPA binding) (converted).
Sequence of human Orexin type 1 receptors (O43613 whole entry): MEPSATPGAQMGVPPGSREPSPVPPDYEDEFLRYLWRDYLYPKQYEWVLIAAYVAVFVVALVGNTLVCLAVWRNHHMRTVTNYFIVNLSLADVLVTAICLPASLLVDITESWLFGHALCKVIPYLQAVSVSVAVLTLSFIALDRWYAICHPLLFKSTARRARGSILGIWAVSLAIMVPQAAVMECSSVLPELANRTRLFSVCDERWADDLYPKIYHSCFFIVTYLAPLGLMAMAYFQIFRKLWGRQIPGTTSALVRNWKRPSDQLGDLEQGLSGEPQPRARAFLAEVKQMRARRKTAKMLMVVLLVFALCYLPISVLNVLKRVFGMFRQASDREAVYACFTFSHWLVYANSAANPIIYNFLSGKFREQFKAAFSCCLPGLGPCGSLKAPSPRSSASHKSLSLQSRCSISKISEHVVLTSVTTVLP

Sequence of human Orexin type 2 receptors (O43614 whole entry): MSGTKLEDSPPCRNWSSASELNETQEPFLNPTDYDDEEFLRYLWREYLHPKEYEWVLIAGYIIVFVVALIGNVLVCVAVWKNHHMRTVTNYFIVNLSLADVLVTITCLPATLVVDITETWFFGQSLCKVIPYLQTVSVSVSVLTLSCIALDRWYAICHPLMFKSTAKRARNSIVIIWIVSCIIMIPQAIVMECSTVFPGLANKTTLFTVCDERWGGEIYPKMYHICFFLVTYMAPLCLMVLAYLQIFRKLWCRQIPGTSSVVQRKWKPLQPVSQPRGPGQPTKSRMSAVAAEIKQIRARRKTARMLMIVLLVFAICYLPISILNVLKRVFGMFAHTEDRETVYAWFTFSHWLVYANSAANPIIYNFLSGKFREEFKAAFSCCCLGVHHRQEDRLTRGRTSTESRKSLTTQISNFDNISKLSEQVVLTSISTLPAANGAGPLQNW

On to `Cc1nc(C(=O)N2[C@H]3C[C@H](C3)[C@@H](C)[C@H]2COc2ccc(F)cc2)c(-c2ccccn2)s1` (racemic) [Example 132, cis-3-[(4-fluorophenoxy)methyl]-4-methyl-2-[2-methyl-5-(pyridin-2-yl)-1,3-thiazole-4-carbonyl]-2-azabicyclo[3.1.1]heptane], for which the “OX2 pKi (SPA binding)” value in experiment [1] (Table 2, [3H]EMPA 2 nM) is 6.72. Besides, the “OX1 pKi (SPA binding)” value in experiment [2] (Table 2, [3H]SB-674042 2 nM) is given as 7.97.

For `Cc1nc(C(=O)N2C3CC(C3)[C@H](F)[C@H]2COc2ccc(F)cn2)c(-c2ccccc2)s1` (single isomer, unassigned) [Example 63, (3R,4S or 3S,4R)-4-fluoro-3-{[(5-fluoropyridin-2-yl)oxy]methyl}-2-(2-methyl-5-phenyl-1,3-thiazole-4-carbonyl)-2-azabicyclo[3.1.1]heptane], the “OX2 pKi (SPA binding)” value in experiment [1] (Table 1, [3H]EMPA 2 nM) stood at 6.37. For the same compound, the “OX1 pKi (SPA binding)” value in experiment [2] (Table 1, [3H]SB-674042 2 nM) turned out to be 8.06.

As for `Cc1nc(C(=O)N2C3CC(C3)[C@@H](C)[C@@H]2COc2cc3ccccc3cn2)c(-c2ccccc2)s1` (single isomer, unassigned) [Example 86, 3-{[(3R,4R or 3S,4S)-4-methyl-2-(2-methyl-5-phenyl-1,3-thiazole-4-carbonyl)-2-azabicyclo[3.1.1]heptan-3-yl]methoxy}isoquinoline], the Ki in experiment [1] (Table 1, [3H]EMPA 2 nM) is 1290 nM; in experiment [2] (Table 1, [3H]SB-674042 2 nM), 89.1 nM.

With `Cc1nc(C(=O)N2C3CC(C3)[C@@H](C)[C@@H]2COc2cc3ccccc3cn2)c(-c2ccccc2)s1` (single isomer, unassigned) [Example 88, 3-{[(3S,4S or 3R,4R)-4-methyl-2-(2-methyl-5-phenyl-1,3-thiazole-4-carbonyl)-2-azabicyclo[3.1.1]heptan-3-yl]methoxy}isoquinoline], the Ki in experiment [1] (Table 1, [3H]EMPA 2 nM) is 275 nM; in experiment [2] (Table 1, [3H]SB-674042 2 nM), 12 nM.

As for `Cc1nc(C(=O)N2C3CC(C3)[C@H](C)[C@@H]2COc2cc3ccccc3cn2)c(-c2ccccc2)s1` (single isomer, unassigned) [Example 89, 3-{[(3S,4R or 3R,4S)-4-methyl-2-(2-methyl-5-phenyl-1,3-thiazole-4-carbonyl)-2-azabicyclo[3.1.1]heptan-3-yl]methoxy}isoquinoline], the Ki in experiment [1] (Table 1, [3H]EMPA 2 nM) is 1000 nM; in experiment [2] (Table 1, [3H]SB-674042 2 nM) it was 1.38 nM.

As to `Cc1ccc(-c2ncccn2)c(C(=O)N2C3CC(C3)[C@H](C)[C@@H]2COc2ccc(F)cc2)n1` (single isomer, unassigned) [Example 91, (3S,4R or 3R,4S)-3-(4-fluorophenoxymethyl)-4-methyl-2-[6-methyl-3-(pyrimidin-2-yl)pyridine-2-carbonyl]-2-azabicyclo[3.1.1]heptane], the Ki in experiment [1] (Table 1, [3H]EMPA 2 nM) was 35.5 nM; in experiment [2] (Table 1, [3H]SB-674042 2 nM) it was 3.47 nM.

For the compound `Cc1ccc(-c2nccs2)c(C(=O)N2C3CC(C3)[C@H](C)C2COc2ccc(F)cc2)n1` (single isomer, unassigned) [Example 108, (3S,4S or 3R,4R)-3-[(4-fluorophenoxy)methyl]-4-methyl-2-[6-methyl-3-(1,3-thiazol-2-yl)pyridine-2-carbonyl]-2-azabicyclo[3.1.1]heptane], the Ki in experiment [1] (Table 1, [3H]EMPA 2 nM) was 407 nM; in experiment [2] (Table 1, [3H]SB-674042 2 nM) it was 3.24 nM.

Consider `Cc1ccc(-n2nccn2)c(C(=O)N2C3CC(C3)[C@H](C)C2COc2ccc(Cl)cc2)n1` (single isomer, unassigned) [Example 119, (3S,4S) or (3R,4R)-3-[(4-chlorophenoxy)methyl]-4-methyl-2-[6-methyl-3-(2H-1,2,3-triazol-2-yl)pyridin-2-carbonyl]-2-azabicyclo[3.1.1]heptane], for which the “OX2 pKi (SPA binding)” value in experiment [1] (Table 2, [3H]EMPA 2 nM) is recorded as 5.77. Also, the “OX1 pKi (SPA binding)” value in experiment [2] (Table 2, [3H]SB-674042 2 nM) is 7.08.

Take `Cc1ccc(-n2nccn2)c(C(=O)N2C3CC(C3)[C@H](C)C2COc2ccc(Cl)cc2)n1` (single isomer, unassigned) [Example 120, (3R,4R) or (3S,4S)-3-[(4-chlorophenoxy)methyl]-4-methyl-2-[6-methyl-3-(2H-1,2,3-triazol-2-yl)pyridine-2-carbonyl]-2-azabicyclo[3.1.1]heptane]: the “OX2 pKi (SPA binding)” value in experiment [1] (Table 2, [3H]EMPA 2 nM) was found to be 5.98. Further, in experiment [2] (Table 2, [3H]SB-674042 2 nM), the “OX1 pKi (SPA binding)” value was 8.

Regarding `Cc1nc(C(=O)N2C3CC(C3)[C@H](C)C2COc2ccc(F)cc2)c(-c2ccccn2)s1` (single isomer, unassigned) [Example 124, (3S,4S) or (3R,4R)-3-[(4-fluorophenoxy)methyl]-4-methyl-2-[2-methyl-5-(pyridin-2-yl)-1,3-thiazole-4-carbonyl]-2-azabicyclo[3.1.1]heptane], in experiment [1] (Table 2, [3H]EMPA 2 nM), the “OX2 pKi (SPA binding)” value is reported as 6.3. In experiment [2] (Table 2, [3H]SB-674042 2 nM), the “OX1 pKi (SPA binding)” value stood at 8.43.

Regarding `Cc1ccc(-n2nccn2)c(C(=O)N2C3CC(C3)[C@@H](C)C2CNc2nc3ccc(F)cc3s2)n1` (single isomer, unassigned) [Example 154, 6-fluoro-N-{[(3R,4S) or (3S,4R)-4-methyl-2-[6-methyl-3-(2H-1,2,3-triazol-2-yl)pyridine-2-carbonyl]-2-azabicyclo[3.1.1]heptan-3-yl]methyl}-1,3-benzothiazol-2-amine], the “OX2 pKi (SPA binding)” value in experiment [1] (Table 2, [3H]EMPA 2 nM) amounted to 6.23. In addition, the “OX1 pKi (SPA binding)” value in experiment [2] (Table 2, [3H]SB-674042 2 nM) was 9.06.

Regarding `Cc1ccc(-n2nccn2)c(C(=O)N2C3CC(C3)[C@@H](C)C2CNc2cnc3ccccc3n2)n1` (single isomer, unassigned) [Example 159, N-{[(3S,4R) or (3R,4S)-4-methyl-2-[6-methyl-3-(2H-1,2,3-triazol-2-yl)pyridine-2-carbonyl]-2-azabicyclo[3.1.1]heptan-3-yl]methyl}quinoxalin-2-amine], the “OX2 pKi (SPA binding)” value in experiment [1] (Table 2, [3H]EMPA 2 nM) worked out at 4.59. Also, the “OX1 pKi (SPA binding)” value in experiment [2] (Table 2, [3H]SB-674042 2 nM) stood at 6.84.

For `Cc1ccc(-n2nccn2)c(C(=O)N2C3CC(C3)[C@@H](C)C2CNc2cnc3ccccc3n2)n1` (single isomer, unassigned) [Example 160, N-{[(3R,4S) or (3S,4R)-4-methyl-2-[6-methyl-3-(2H-1,2,3-triazol-2-yl)pyridine-2-carbonyl]-2-azabicyclo[3.1.1]heptan-3-yl]methyl}quinoxalin-2-amine], the “OX2 pKi (SPA binding)” value in experiment [1] (Table 2, [3H]EMPA 2 nM) was 5.98. Besides, the “OX1 pKi (SPA binding)” value in experiment [2] (Table 2, [3H]SB-674042 2 nM) turned out to be 8.68.

With `Cc1nc(C(=O)N2C3CC(C3)[C@@H](C)C2CNc2nc3ccc(F)cc3s2)c(-c2ncccn2)s1` (single isomer, unassigned) [Example 164, 6-fluoro-N-({(3R,4S) or (3S,4R)4-methyl-2-[2-methyl-5-(pyrimidin-2-yl)-1,3-thiazole-4-carbonyl]-2-azabicyclo[3.1.1]heptan-3-yl}methyl)-1,3-benzothiazol-2-amine], in experiment [1] (Table 2, [3H]EMPA 2 nM), the “OX2 pKi (SPA binding)” value is 5.68. Moreover, the “OX1 pKi (SPA binding)” value in experiment [2] (Table 2, [3H]SB-674042 2 nM) came out at 8.93.

On to `Cc1ccc(-n2nccn2)c(C(=O)N2C3CC(C3)[C@@H](C)C2CNc2cnc(C(F)(F)F)cn2)n1` (single isomer, unassigned) [Example 166, N-{[(3S,4R) or (3R,4S)-4-methyl-2-[6-methyl-3-(2H-1,2,3-triazol-2-yl)pyridine-2-carbonyl]-2-azabicyclo[3.1.1]heptan-3-yl]methyl}-5-(trifluoromethyl)pyrazin-2-amine], for which the “OX2 pKi (SPA binding)” value in experiment [1] (Table 2, [3H]EMPA 2 nM) is given as 4.29. In addition, the “OX1 pKi (SPA binding)” value in experiment [2] (Table 2, [3H]SB-674042 2 nM) is listed as 6.99.

For `C[C@@H]1C2CC(C2)N(C(=O)c2cc(F)ccc2-n2nccn2)C1CNc1nc2ccc(F)cc2s1` (single isomer, unassigned) [Example 170, 6-fluoro-N-({(3R,4S) or (3S,4R)2-[5-fluoro-2-(2H-1,2,3-triazol-2-yl)benzoyl]-4-methyl-2-azabicyclo[3.1.1]heptan-3-yl}methyl)-1,3-benzothiazol-2-amine], in experiment [1] (Table 2, [3H]EMPA 2 nM), the “OX2 pKi (SPA binding)” value came to 5.99. Moreover, the “OX1 pKi (SPA binding)” value in experiment [2] (Table 2, [3H]SB-674042 2 nM) amounted to 8.86.

With `C[C@@H]1C2CC(C2)N(C(=O)c2cc(Cl)ccc2-n2nccn2)C1CNc1nc2ccc(F)cc2s1` (single isomer, unassigned) [Example 173, N-({(3R,4S) or (3S,4R)2-[5-chloro-2-(2H-1,2,3-triazol-2-yl)benzoyl]-4-methyl-2-azabicyclo[3.1.1]heptan-3-yl}methyl)-6-fluoro-1,3-benzothiazol-2-amine], the “OX2 pKi (SPA binding)” value in experiment [1] (Table 2, [3H]EMPA 2 nM) is given as 6.53. Moreover, the “OX1 pKi (SPA binding)” value in experiment [2] (Table 2, [3H]SB-674042 2 nM) was 9.36.

Regarding `C[C@@H]1C2CC(C2)N(C(=O)c2cc(C#N)ccc2-n2nccn2)C1CNc1nc2ccc(F)cc2s1` (single isomer, unassigned) [Example 177, 3-[(3R,4S) or (3S,4R)-3-{[(6-fluoro-1,3-benzothiazol-2-yl)amino]methyl}-4-methyl-2-azabicyclo[3.1.1]heptane-2-carbonyl]-4-(2H-1,2,3-triazol-2-yl)benzonitrile], in experiment [1] (Table 2, [3H]EMPA 2 nM), the “OX2 pKi (SPA binding)” value amounted to 6.46. Moreover, the “OX1 pKi (SPA binding)” value in experiment [2] (Table 2, [3H]SB-674042 2 nM) is given as 8.95.

Take `Cc1ccc(-n2nccn2)c(C(=O)N2C3CC(C3)[C@@H](C)C2CNc2nc3ccccc3s2)n1` (single isomer, unassigned) [Example 180, N-{[(3R,4S) or (3S,4R)-4-methyl-2-[6-methyl-3-(2H-1,2,3-triazol-2-yl)pyridine-2-carbonyl]-2-azabicyclo[3.1.1]heptan-3-yl]methyl}-1,3-benzothiazol-2-amine]: the “OX2 pKi (SPA binding)” value in experiment [1] (Table 2, [3H]EMPA 2 nM) was determined as 5.58. Further, in experiment [2] (Table 2, [3H]SB-674042 2 nM), the “OX1 pKi (SPA binding)” value came to 8.78.

On to `C[C@@H]1C2CC(C2)N(C(=O)c2cc(F)ccc2-n2nccn2)C1CNc1cnc2ccccc2n1` (single isomer, unassigned) [Example 189, N-({(3R,4S) or (3S,4R)2-[5-fluoro-2-(2H-1,2,3-triazol-2-yl)benozyl]-4-methyl-2-azabicyclo[3.1.1]heptan-3-yl}methyl)quinoxalin-2-amine], for which the “OX2 pKi (SPA binding)” value in experiment [1] (Table 2, [3H]EMPA 2 nM) stood at 5.92. For the same compound, the “OX1 pKi (SPA binding)” value in experiment [2] (Table 2, [3H]SB-674042 2 nM) is given as 8.51.

Turning to `C[C@@H]1C2CC(C2)N(C(=O)c2cc(F)ccc2-n2nccn2)C1CNc1ccc(C(F)(F)F)cn1` (single isomer, unassigned) [Example 192, N-({(3R,4S) or (3S,4R)2-[5-fluoro-2-(2H-1,2,3-triazol-2-yl)benzoyl]-4-methyl-2-azabicyclo[3.1.1]heptan-3-yl}methyl)-5-(trifluoromethyl)pyridin-2-amine], the “OX2 pKi (SPA binding)” value in experiment [1] (Table 2, [3H]EMPA 2 nM) was found to be 5.19. The “OX1 pKi (SPA binding)” value in experiment [2] (Table 2, [3H]SB-674042 2 nM) is given as 8.13.
